Test results as given in US8735446B2, “Vanillin acetals and sensory stimulant composition containing the same” (Takasago International Corporation, priority 2005, dated 2014).

What was measured:
[1] = test system: ten expert panelists; assay: Sensory Evaluation 1: oral evaluation of 10 ppm aqueous solutions; format: in vivo, human; design: key to Instantaneous sensation: ⊚: very fast; ◯: fast; Δ: is somewhat slow; x: slow; conditions: for Instantaneous sensation / Intensity: oral evaluation, 10 ppm aqueous solution, warming sensation and pungent taste, average of ten panelists; for Intensity: scale 5 very strong, 4 strong, 3 weak, 2 very weak, 1 not able to feel
Description: Compound A and Compound C obtained in Example 1 and Example 3, respectively, were subjected to oral evaluation using 10 ppm aqueous solutions of them by ten expert panelists having 5 or more year experience, and an instantaneous sensation and an intensity of warming sensation and pungent taste were evaluated on the basis of the following evaluation criteria. On the sensory evaluation, 4-(l-methoxymethyl)-2-(3′-methoxy-4′-hydroxyphenyl)-1,3-dioxolan (Comparative compound A: the compound described in JP-A-8-225564) was used as a comparative compound. The evaluation results in the table show the average value of ten panelists.

[2] = test system: skin; assay: warm sensation and stimulating effect on the skin; format: in vivo, human

Structure (SMILES)	pungent and warming effect in the mouth [1]	Instantaneous sensation [1]	Intensity [1]	warm sensation and stimulating effect on the skin [2]
COCC1COC(c2ccc(O)c(OC)c2)O1 (stereo not drawn) [Comparative compound A, 4-(l-methoxymethyl)-2-(3′-methoxy-4′-hydroxyphenyl)-1,3-dioxolan, reference compound]	strong pungent and warming effect in the mouth	Δ	2.8	strong warm sensation and stimulating effect on the skin
CCCCC1COC(c2ccc(O)c(OC)c2)O1 (stereo not drawn) [Compound A, vanillin-1,2-hexylene glycol acetal]	strong pungent and warming effect in the mouth	⊚	4.5	strong warm sensation and stimulating effect on the skin
CCCCOCC1COC(c2ccc(O)c(OC)c2)O1 (stereo not drawn) [Compound C, vanillin-1-butoxyglycerol acetal]	strong pungent and warming effect in the mouth	⊚	4.2	strong warm sensation and stimulating effect on the skin
